Experimental data as given in patent US8147872B2, “Pharmaceutical compositions of drugs and neutralized acidic polymers” (Bend Reseach, Inc., priority 2001, dated 2012).

What was measured:
[1] = In vitro dissolution test of Drug 3 compositions in PBS with 0.5 wt % NaTC/POPC; format: physicochemical; details: for Drug 3 Concentration: approx. 200 μg/mL if all dissolved
Experimental: (§1) For this test, 14.4 mg of the dispersion was added to a microcentrifuge tube for a total Drug 2 concentration of approximately 2000 μg/mL if all of the drug were to dissolve completely. The tube was placed in a 37° C. temperature-controlled chamber, and 1.8 mL PBS as pH 6.5 and 290 mOsm/kg was added. The samples were quickly mixed using a vortex mixer for about 60 seconds. The samples were centrifuged at 13,000 G at 37° C. for 1 minute. The resulting supernatant solution was then sampled and diluted 1:6 (by volume) with methanol and then analyzed by high-performance liquid chromatography (HPLC). The contents of the tubes were mixed on the vortex mixer and allowed to stand undisturbed at 37° C. until the next sample was taken. Samples were collected at 4, 10, 20, 40, 90, and 1200 minutes.
For these tests, 1.44 mg of each dispersion was added to a microcentrifuge tube containing PBS with 0.5 wt % sodium taurocholic acid and 1-palmitoyl-2-oleyl-sn-glycero-3-phosphocholine (“NaTC/POPC,” with a 4/1 weight ratio), for a total Drug 3 concentration of approximately 200 μg/mL if all of the drug were to dissolve completely. For Controls C5, C6, and C7 (with Drug 3B), 1.57 mg of each dispersion was added to PBS containing 0.5 wt % NaTC/POPC to yield approximately 200 μg/mL of active Drug 3. Control C8 consisted of 0.36 mg of crystalline Drug 3A. The dissolution tests were performed as described in Example 9.

[2] = In vitro dissolution test of Drug 2 compositions in PBS pH 6.5 (microcentrifuge method, HPLC); format: physicochemical; parameters: AUC90: tested at 2000 µg/mL
Experimental: as §1
For comparison, a Control C4 consisting of 3.6 mg of crystalline Drug 2 was added to PBS for a total concentration of 2000 μg/mL.
For this test, 14.4 mg of the dispersion was added to a microcentrifuge tube for a total Drug 2 concentration of approximately 2000 μg/mL if all of the drug were to dissolve completely. The dissolution test was performed as described in Example 9. Control C4 (consisting of 3.6 mg of crystalline Drug 2) is shown again for comparison.

`O=C1Cc2cc(CCN3CCN(c4nsc5ccccc45)CC3)c(Cl)cc2N1` [Example C8, ziprazidone] gave a Cmax90 ([1]; Drug 3) of 2 µg/mL, an AUC ([1]; Drug 3, time 0 min) of 0 µg·min/mL and an AUC ([1]; Drug 3, time 4 min) of 0 µg·min/mL. It also gave an AUC ([1]; Drug 3, time 10 min) of 0 µg·min/mL, an AUC ([1]; Drug 3, time 20 min) of 0 µg·min/mL and an AUC ([1]; Drug 3, time 40 min) of 0 µg·min/mL. The AUC ([1]; Drug 3, time 90 min) was 100 µg·min/mL, the AUC ([1]; Drug 3, time 1200 min) was 1,800 min * μg/mL and the AUC ([1]; Table 9, AUC90 according to the text, Drug 3) was 100 µg·min/mL. The “Drug 3 Concentration” value ([1]; time 0 min) was 0 µg/mL, the “Drug 3 Concentration” value ([1]; time 4 min) was 1 µg/mL and the “Drug 3 Concentration” value ([1]; time 10 min) was 1 µg/mL. For the same molecule, the “Drug 3 Concentration” value ([1]; time 20 min) was 1 µg/mL, the “Drug 3 Concentration” value ([1]; time 40 min) was 2 µg/mL and the “Drug 3 Concentration” value ([1]; time 90 min) was 1 µg/mL. The “Drug 3 Concentration” value ([1]; time 1200 min) was 2 µg/mL.

For `O=C(N[C@@H](Cc1ccccc1)[C@@H](O)C(=O)N1C[C@@H](O)[C@@H](O)C1)c1cc2cc(Cl)ccc2[nH]1` [Example C4, 5-chloro-1H-indole-2-carboxylic acid[(1S)-benzyl-3-((3R,4S)-dihydroxypyrrolidin-1-yl)-(2R)-hydroxy-3-oxypropyl]amide], the AUC90 ([2]; Drug 2, PBS pH 6.5, 37° C.) was 10,300 min * μg/mL, the Cmax90 ([2]; Drug 2, PBS pH 6.5, 37° C.) was 131 µg/mL and the AUC ([2]; Table 4, time 0 min, PBS pH 6.5, 37° C.) was 0 µg·h/mL. For the same molecule, the AUC ([2]; Table 4, time 4 min, PBS pH 6.5, 37° C.) was 5 µg·h/mL, the AUC ([2]; Table 4, time 10 min, PBS pH 6.5, 37° C.) was 16.7 µg·h/mL and the AUC ([2]; Table 4, time 20 min, PBS pH 6.5, 37° C.) was 36.7 µg·h/mL. It also gave an AUC ([2]; Table 4, time 40 min, PBS pH 6.5, 37° C.) of 75 µg·h/mL, an AUC ([2]; Table 4, time 90 min, PBS pH 6.5, 37° C.) of 172 µg·h/mL and an AUC ([2]; Table 4, time 1200 min, PBS pH 6.5, 37° C.) of 2000 µg·h/mL. For the same molecule, the AUC ([2]; Table 5, AUC90 according to the text, PBS pH 6.5) was 172 µg·h/mL, the “Drug 2 Concentration” value ([2]; Table 5, Cmax90 according to the text, PBS pH 6.5) was 131 µg/mL and the AUC ([2]; time 0 min, PBS pH 6.5, 37° C.) was 0 µg·h/mL. For the same molecule, the “Drug 2 Concentration” value ([2]; time 0 min, PBS pH 6.5, 37° C., approx. 2000 μg/mL if all dissolved) was 0 µg/mL, the AUC ([2]; time 4 min, PBS pH 6.5, 37° C.) was 5 µg·h/mL and the “Drug 2 Concentration” value ([2]; time 4 min, PBS pH 6.5, 37° C., approx. 2000 μg/mL if all dissolved) was 131 µg/mL. For the same molecule, the AUC ([2]; time 10 min, PBS pH 6.5, 37° C.) was 1,000 min * μg/mL, the “Drug 2 Concentration” value ([2]; time 10 min, PBS pH 6.5, 37° C., approx. 2000 μg/mL if all dissolved) was 114 µg/mL and the AUC ([2]; time 20 min, PBS pH 6.5, 37° C.) was 2,200 min * μg/mL. For the same molecule, the “Drug 2 Concentration” value ([2]; time 20 min, PBS pH 6.5, 37° C., approx. 2000 μg/mL if all dissolved) was 124 µg/mL, the AUC ([2]; time 40 min, PBS pH 6.5, 37° C.) was 4,500 min * μg/mL and the “Drug 2 Concentration” value ([2]; time 40 min, PBS pH 6.5, 37° C., approx. 2000 μg/mL if all dissolved) was 107 µg/mL. The AUC ([2]; time 90 min, PBS pH 6.5, 37° C.) was 10,300 min * μg/mL, the “Drug 2 Concentration” value ([2]; time 90 min, PBS pH 6.5, 37° C., approx. 2000 μg/mL if all dissolved) was 126 µg/mL and the AUC ([2]; time 1200 min, PBS pH 6.5, 37° C.) was 120,200 min * μg/mL. For the same molecule, the “Drug 2 Concentration” value ([2]; time 1200 min, PBS pH 6.5, 37° C., approx. 2000 μg/mL if all dissolved) was 72 µg/mL.
